Experimental data reported in patent publication US11739070B2, “C5A receptor modulators” (IDORSIA PHARMACEUTICALS LTD, priority 2018, dated 2023).

Target: T1, C5AR1 (Homo sapiens, UniProt P21730)
T1 construct: host or cells: CHO-K1
T1 sequence (P21730 1-350): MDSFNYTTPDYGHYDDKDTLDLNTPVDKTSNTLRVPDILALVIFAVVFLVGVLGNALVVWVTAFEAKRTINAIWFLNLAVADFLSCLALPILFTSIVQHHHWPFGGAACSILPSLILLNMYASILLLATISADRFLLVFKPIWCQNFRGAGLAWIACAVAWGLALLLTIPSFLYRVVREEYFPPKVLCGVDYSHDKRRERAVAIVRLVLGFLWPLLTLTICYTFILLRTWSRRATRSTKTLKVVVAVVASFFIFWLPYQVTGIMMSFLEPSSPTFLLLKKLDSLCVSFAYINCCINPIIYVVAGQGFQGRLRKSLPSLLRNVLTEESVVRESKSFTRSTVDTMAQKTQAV
Assay: hC5a DISCO IC50 assay (PathHunter beta-arrestin, antagonist mode)
Format: cell-based
Conditions: CHO-K1 C5AR1 beta-arrestin cell line; antagonist vs 1-10 nM C5a agonist; geometric mean values; read-out: C5aR IC50
Protocol: II. Biological Assays In Vitro Assay hC5a DISCO IC50 Assay
5 μl Antagonist at 6-fold end concentration or DMSO control is added to assay medium and subsequently 5 μl 1-10 nM C5a agonist at 6 fold end concentration. Cells are centrifuged for 1 min at 1000 rpm and incubated for 1.5 hour in at 37° C. Plates are equilibrated at room temperature for several minutes before adding 12 μl/well Detection Reagent (PathHunter Detection Kit, DiscoverX, Cat #93-0001). Plates are centrifuged for 1 min at 1000 rpm and incubated for 45 minutes at RT before being measured on a Fluostar Optima, BMG Labtech. IC50 values are calculated from a serial dilution range of antagonist using inhouse software and given in nmol/l.
The calculated IC50 values may fluctuate depending on the daily cellular assay performance. Fluctuations of this kind are known to those skilled in the art. Average IC50 values from several measurements are given as geometric mean values.

| SMILES | IC50 [nM] |
| --- | --- |
| COc1nccc(C)c1N1CC[C@@H](n2c(=O)n(Cc3ccccc3C(F)(F)F)c3c(OC)cccc32)C1 [Example 33, 4-Methoxy-1-[(R)-1-(2-methoxy-4-methyl-pyridin-3-yl)-pyrrolidin-3-yl]-3-(2-trifluoromethyl-benzyl)-1,3-dihydro-benzoimidazol-2-one] | 8 |
| COc1cccc2c1n(Cc1ccccc1C(F)(F)F)c(=O)n2[C@@H]1CCN(c2c(F)cncc2F)C1 [Example 34, 1-[(R)-1-(3,5-Difluoro-pyridin-4-yl)-pyrrolidin-3-yl]-4-methoxy-3-(2-trifluoromethyl-benzyl)-1,3-dihydro-benzoimidazol-2-one] | 27 |
| COc1cccc2c1n(Cc1ccccc1C(F)(F)F)c(=O)n2C1CCN(C(C)C)CC1 [Example 35, 1-(1-Isopropyl-piperidin-4-yl)-4-methoxy-3-(2-trifluoromethyl-benzyl)-1,3-dihydro-benzoimidazol-2-one] | 4510 |
| COc1cccc2c1n(Cc1ccccc1C(F)(F)F)c(=O)n2[C@@H]1CCN(c2c(C)cncc2C)C1 [Example 36, 1-[(R)-1-(3,5-Dimethyl-pyridin-4-yl)-pyrrolidin-3-yl]-4-methoxy-3-(2-trifluoromethyl-benzyl)-1,3-dihydro-benzoimidazol-2-one] | 450 |
| COc1cccc2c1n(Cc1ccccc1C(F)(F)F)c(=O)n2[C@@H]1CCN(c2c(C)ccnc2F)C1 [Example 37, 1-[(R)-1-(2-Fluoro-4-methyl-pyridin-3-yl)-pyrrolidin-3-yl]-4-methoxy-3-(2-trifluoromethyl-benzyl)-1,3-dihydro-benzoimidazol-2-one] | 7 |
| COc1cncc(OC)c1N1CC[C@@H](n2c(=O)n(Cc3ccccc3C(F)(F)F)c3c(OC)cccc32)C1 [Example 38, 1-[(R)-1-(3,5-Dimethoxy-pyridin-4-yl)-pyrrolidin-3-yl]-4-methoxy-3-(2-trifluoromethyl-benzyl)-1,3-dihydro-benzoimidazol-2-one] | 470 |
| COc1nccc2c1n(Cc1ccccc1C(F)(F)F)c(=O)n2[C@@H]1CCN(C(=O)OC(C)(C)C)C1 [Example 39, (R)-3-[4-Methoxy-2-oxo-3-(2-trifluoromethyl-benzyl)-2,3-dihydro-imidazo[4,5-c]pyridin-1-yl]-pyrrolidine-1-carboxylic acid tert-butyl ester] | 2430 |
| Cc1cccc(F)c1N1CC[C@@H](n2c(=O)n(Cc3ccccc3C(F)(F)F)c3c(O)cccc32)C1 [Example 40, 1-[(R)-1-(2-Fluoro-6-methyl-phenyl)-pyrrolidin-3-yl]-4-hydroxy-3-(2-trifluoromethyl-benzyl)-1,3-dihydro-benzoimidazol-2-one] | 6 |
| COc1nccc2c1n(Cc1ccccc1C(F)(F)F)c(=O)n2[C@@H]1CCN(c2c(C)cccc2C)C1 [Example 41, 1-[(R)-1-(2,6-Dimethyl-phenyl)-pyrrolidin-3-yl]-4-methoxy-3-(2-trifluoromethyl-benzyl)-1,3-dihydro-imidazo[4,5-c]pyridin-2-one] | 18 |
| COc1nccc2c1n(Cc1ccccc1C(F)(F)F)c(=O)n2[C@@H]1CCN(c2c(F)cccc2F)C1 [Example 42, 1-[(R)-1-(2,6-Difluoro-phenyl)-pyrrolidin-3-yl]-4-methoxy-3-(2-trifluoromethyl-benzyl)-1,3-dihydro-imidazo[4,5-c]pyridin-2-one] | 75 |
| COc1ccnc2c1n(Cc1ccccc1C(F)(F)F)c(=O)n2[C@@H]1CCN(C(=O)OC(C)(C)C)C1 [Example 43, (R)-3-[7-Methoxy-2-oxo-1-(2-trifluoromethyl-benzyl)-1,2-dihydro-imidazo[4,5-b]pyridin-3-yl]-pyrrolidine-1-carboxylic acid tert-butyl ester] | 393 |
| Cc1cccc(C)c1N1CC[C@@H](n2c(=O)n(Cc3ccccc3C(F)(F)F)c3c(O)cccc32)C1 [Example 44, 1-[(R)-1-(2,6-Dimethyl-phenyl)-pyrrolidin-3-yl]-4-hydroxy-3-(2-trifluoromethyl-benzyl)-1,3-dihydro-benzoimidazol-2-one] | 13 |
| COc1ccnc2c1n(Cc1ccccc1C(F)(F)F)c(=O)n2[C@@H]1CCN(c2c(C)cccc2C)C1 [Example 45, 3-[(R)-1-(2,6-Dimethyl-phenyl)-pyrrolidin-3-yl]-7-methoxy-1-(2-trifluoromethyl-benzyl)-1,3-dihydro-imidazo[4,5-b]pyridin-2-one] | 16 |
| COc1ccnc2c1n(Cc1ccccc1C(F)(F)F)c(=O)n2[C@@H]1CCN(c2c(F)cccc2F)C1 [Example 46, 3-[(R)-1-(2,6-Difluoro-phenyl)-pyrrolidin-3-yl]-7-methoxy-1-(2-trifluoromethyl-benzyl)-1,3-dihydro-imidazo[4,5-b]pyridin-2-one] | 39 |
| COc1nccc(C)c1N1CC[C@@H](n2c(=O)n(Cc3ccccc3C(F)(F)F)c3c(OC)nccc32)C1 [Example 47, 4-Methoxy-1-[(R)-1-(2-methoxy-4-methyl-pyridin-3-yl)-pyrrolidin-3-yl]-3-(2-trifluoromethyl-benzyl)-1,3-dihydro-imidazo[4,5-c]pyridin-2-one] | 95 |
| COc1nccc2c1n(Cc1ccccc1C(F)(F)F)c(=O)n2[C@@H]1CCN(c2c(C)ccnc2F)C1 [Example 48, 1-[(R)-1-(2-Fluoro-4-methyl-pyridin-3-yl)-pyrrolidin-3-yl]-4-methoxy-3-(2-trifluoromethyl-benzyl)-1,3-dihydro-imidazo[4,5-c]pyridin-2-one] | 165 |
| COc1cccc(F)c1N1CC[C@@H](n2c(=O)n(Cc3ccccc3C(F)(F)F)c3c(OC)nccc32)C1 [Example 49, 1-[(R)-1-(2-Fluoro-6-methoxy-phenyl)-pyrrolidin-3-yl]-4-methoxy-3-(2-trifluoromethyl-benzyl)-1,3-dihydro-imidazo[4,5-c]pyridin-2-one] | 132 |
| COc1nccc2c1n(Cc1ccccc1C(F)(F)F)c(=O)n2[C@@H]1CCN(c2c(C)cccc2F)C1 [Example 50, 1-[(R)-1-(2-Fluoro-6-methyl-phenyl)-pyrrolidin-3-yl]-4-methoxy-3-(2-trifluoromethyl-benzyl)-1,3-dihydro-imidazo[4,5-c]pyridin-2-one] | 42 |
| COc1cccc(C)c1N1CC[C@@H](n2c(=O)n(Cc3ccccc3C(F)(F)F)c3c(OC)nccc32)C1 [Example 51, 4-Methoxy-1-[(R)-1-(2-methoxy-6-methyl-phenyl)-pyrrolidin-3-yl]-3-(2-trifluoromethyl-benzyl)-1,3-dihydro-imidazo[4,5-c]pyridin-2-one] | 62 |
| Cc1cccc(C)c1N1CC[C@@H](n2c(=O)n(Cc3ccccc3C(F)(F)F)c3c(OCCO)cccc32)C1 [Example 52, 1-[(R)-1-(2,6-Dimethyl-phenyl)-pyrrolidin-3-yl]-4-(2-hydroxy-ethoxy)-3-(2-trifluoromethyl-benzyl)-1,3-dihydro-benzoimidazol-2-one] | 30 |
| COc1cccc2c1n(Cc1cnccc1C(F)(F)F)c(=O)n2C1CCN(C(=O)OC(C)(C)C)CC1 [Example 53, 4-[4-Methoxy-2-oxo-3-(4-trifluoromethyl-pyridin-3-ylmethyl)-2,3-dihydro-benzoimidazol-1-yl]-piperidine-1-carboxylic acid tert-butyl ester] | 1840 |
| COc1cccc2c1n(Cc1cccnc1C(F)(F)F)c(=O)n2C1CCN(c2c(C)cccc2C)CC1 [Example 54, 1-[1-(2,6-Dimethyl-phenyl)-piperidin-4-yl]-4-methoxy-3-(2-trifluoromethyl-pyridin-3-ylmethyl)-1,3-dihydro-benzoimidazol-2-one] | 43 |
| COc1cccc2c1n(Cc1cccnc1C(F)(F)F)c(=O)n2C1CCN(c2c(F)cccc2F)CC1 [Example 55, 1-[1-(2,6-Difluoro-phenyl)-piperidin-4-yl]-4-methoxy-3-(2-trifluoromethyl-pyridin-3-ylmethyl)-1,3-dihydro-benzoimidazol-2-one] | 178 |
| COc1cccc(F)c1N1CC[C@@H](n2c(=O)n(Cc3ccccc3C(F)(F)F)c3c(=O)[nH]ccc32)C1 [Example 56, 1-[(R)-1-(2-Fluoro-6-methoxy-phenyl)-pyrrolidin-3-yl]-3-(2-trifluoromethyl-benzyl)-3,5-dihydro-1H-imidazo[4,5-c]pyridine-2,4-dione] | 717 |
| Cc1cccc(F)c1N1CC[C@@H](n2c(=O)n(Cc3ccccc3C(F)(F)F)c3c(=O)[nH]ccc32)C1 [Example 57, 1-[(R)-1-(2-Fluoro-6-methyl-phenyl)-pyrrolidin-3-yl]-3-(2-trifluoromethyl-benzyl)-3,5-dihydro-1H-imidazo[4,5-c]pyridine-2,4-dione] | 89 |
| COc1cccc2c1n(Cc1cnccc1C(F)(F)F)c(=O)n2C1CCN(c2c(C)cccc2C)CC1 [Example 58, 1-[1-(2,6-Dimethyl-phenyl)-piperidin-4-yl]-4-methoxy-3-(4-trifluoromethyl-pyridin-3-ylmethyl)-1,3-dihydro-benzoimidazol-2-one] | 25 |
| COc1cccc2c1n(Cc1cnccc1C(F)(F)F)c(=O)n2C1CCN(c2c(F)cccc2F)CC1 [Example 59, 1-[1-(2,6-Difluoro-phenyl)-piperidin-4-yl]-4-methoxy-3-(4-trifluoromethyl-pyridin-3-ylmethyl)-1,3-dihydro-benzoimidazol-2-one] | 49 |
